As a reminder, the IC50 is the concentration at which inhibition is half-maximal. Usually Ki stands for a measure of affinity in units of concentration, obtained from inhibition or displacement.

In assay [1] the target is T1, Purine nucleoside phosphorylase (Bos taurus, UniProt P55859).
T1 sequence (P55859 whole entry): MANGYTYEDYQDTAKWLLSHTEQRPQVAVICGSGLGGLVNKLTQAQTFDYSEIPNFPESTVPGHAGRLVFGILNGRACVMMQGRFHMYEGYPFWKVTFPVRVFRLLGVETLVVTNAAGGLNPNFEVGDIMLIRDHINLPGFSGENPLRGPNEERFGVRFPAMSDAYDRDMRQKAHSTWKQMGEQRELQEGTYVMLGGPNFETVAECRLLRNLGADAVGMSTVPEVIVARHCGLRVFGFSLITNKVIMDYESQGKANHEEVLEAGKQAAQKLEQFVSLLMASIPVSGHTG
Kind of assay: Inhibitory concentration against calf spleen purine nucleoside phosphorylase in the presence of 50 mM (pi) […].

Assay [2] concerns the target T2, Purine nucleoside phosphorylase (Homo sapiens, UniProt P00491).
T2 sequence (P00491 whole entry): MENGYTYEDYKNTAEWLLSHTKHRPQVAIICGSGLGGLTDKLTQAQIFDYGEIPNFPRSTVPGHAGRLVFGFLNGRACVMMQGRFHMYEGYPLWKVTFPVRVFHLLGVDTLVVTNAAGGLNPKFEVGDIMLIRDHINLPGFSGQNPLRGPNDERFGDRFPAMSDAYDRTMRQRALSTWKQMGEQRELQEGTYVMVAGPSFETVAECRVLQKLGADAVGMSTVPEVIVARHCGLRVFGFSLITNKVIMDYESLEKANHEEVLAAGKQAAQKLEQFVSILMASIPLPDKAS
The assay can be described thus: Inhibitory concentration against human erythrocytic purine nucleoside phosphorylase in the presence of 50 mM (pi) […].

The target of assay [3] is T2, Purine nucleoside phosphorylase. Kind of assay: Tested for its inhibitory activity against human erythrocytic purine nucleoside phosphorylase.
The target in assay [4] is T1, Purine nucleoside phosphorylase. Kind of assay: Inhibitory activity against calf spleen purine nucleoside phosphorylase in the presence of 1 mM (pi) […].
The target of assay [5] is T2, Purine nucleoside phosphorylase. Kind of assay: Inhibitory activity against human erythrocytic purine nucleoside phosphorylase in the presence of 1 mM (pi) […].

As for `Nc1nc(O)c2ncn(Cc3ccccc3C(F)C(F)(F)P(=O)(O)O)c2n1` (stereo not given), the half-maximal inhibitory concentration (IC50) in assay [1] came to 100 nM; in assay [2], 85 nM. Turning to `Nc1nc(O)c2nc(N)n(Cc3ccccc3)c2n1`, in assay [3], the Ki amounted to 200 nM. Regarding `Nc1nc(O)c2ncn(Cc3ccccc3CC(F)(F)P(=O)(O)O)c2n1`, the 50% inhibitory concentration (IC50) in assay [1] stood at 200 nM. `Nc1nc(O)c2ncn(Cc3ccccc3/C=C(\F)P(=O)(O)O)c2n1`: in assay [1], the IC50 is 60 nM. In addition, the inhibition constant (Ki) in assay [4] turned out to be 0.8 nM. Turning to `Nc1nc(O)c2ncn(Cc3ccccc3/C=C/P(=O)(O)O)c2n1`, the half-maximal inhibitory concentration (IC50) amounted to 85 nM in assay [1] and 155 nM in assay [2]. For the same compound, the Ki in assay [5] amounted to 3.2 nM. Take `Nc1nc2c(ncn2CCCCC(F)(F)P(=O)(O)O)c(=O)[nH]1`: the affinity in assay [3] corresponds to a Ki of 18 nM.

(Values after ChEMBL document CHEMBL1126415, “Phosphonate derivatives of N9-benzylguanine: a new class of potent purine nucleoside phosphorylase inhibitors” (Bioorg Med Chem Lett, 1992).)
